Measured values reported in US9840532B2, “5′-substituted nucleoside compounds” (Eli Lilly and Company, priority 2015, dated 2017).

Tests used:
PRMT5/MEP50 complex = biological target: T1, PRMT5/MEP50 complex (Homo sapiens, UniProt O14744); test: PRMT5/MEP50 SPA Assay; assay type: biochemical; settings: Mean ± SEM
T1 construct: FLAG; made in house; host or cells: baculovirus/Sf9 insect cells
From the text: The purpose of this assay is to measure the ability of a test compound to inhibit the enzyme activity of PRMT5 in vitro by inhibiting the catalytic activity of PRMT5/MEP50 complex, indicated by the transfer of radiolabeled methyl-^3H to a substrate peptide derived from the N-terminal sequence of the human histone H4.
Express the PRMT5/MEP50 enzyme complex using a baculovirus/Sf9 system and purify using anti-FLAG affinity chromatography, (essentially as described in preparations by Stephen Antonysamy, Zahid Bonday, Robert M. Campbell, Brandon Doyle, Zhanna Druzina, Tarun Gheyi, Bomie Han, Louis N. Jungheim, Yuewei Qian, Charles Rauch, Marijane Russell, J. Michael Sauder, Stephen R. Wasserman, Kenneth Weichert, Francis S. Willard, Aiping Zhang, and Spencer Emtage; Crystal structure of the human PRMT5:MEP50 complex, Proceedings of the National Academy of Sciences, 2012, Volume 109, pages 17960-17965.) Dilute purified enzyme to a working stock of 6.67 nM in assay buffer (50 mM TRIZMA® preset pH ˜8.5, 1 mM DTT, 0.005% TWEEN® 80 0.01% HSA).
Add enzyme (15 μL/well) to a 384-well assay plate (CORNING® cat. #3706). Add test compounds from a 10 mM DMSO stock solution to the plate as serial dilutions in assay buffer to achieve a final test concentrations ranging from 50.0 μM to 25 nM. Create a reaction mix containing 1 μM Histone H4 biotinylated peptide substrate, H-[…]-biotin (SEQ ID NO: 1), prepared by FastMoc chemistry with an ABI 431 peptide, and 4 μM ^3H-SAM; 15 Ci/mmol, 0.366 mCi/mL, 37 μM, PERKIN-ELMER® cat. # NET155000MC) in assay buffer. To each plate well, add 5 μL of the peptide/^3H-SAM reaction mix to yield final assay conditions of 5 nM enzyme, 1 ^3H-SAM, 250 nM peptide and 50 μM maximum test compound concentration with 0.5% DMSO, at a final volume of 20 μL. Incubate the assay for 2 hr at room temperature. Stop the reaction with the addition of guanidine HCl (5 M, 20 μL, Sigma cat. # G3272).
Suspend strepavidin YSI SPA scintillation beads (PERKIN-ELMER®, #RPNQ0012) at 1 mg/mL in pH ˜8.5 Tris buffer containing 5 M guanidine HCl. To each well, add 20 μL of this bead suspension, agitate the resulting mixtures, and incubate for 1 hr at room temperature prior to measuring their radioactivity, using a microplate liquid scintillation counter as an indication of the formation of methylated peptide product.
Generate raw data from the radioactivity measurement as counts per min (CPM). Employ an uninhibited control (DMSO) and maximum inhibited control (250 μM dehydrosinefungin, (isolated essentially as described in Berry, D. R. & Abbott, B. J. Incorporation of carbon-14-labeled compounds into sinefungin (A9145), a nucleoside antifungal antibiotic. J. Antibiot. 1978 (31) 185-191 and references cited therein)). […]

EOL-1 cells = test: Combination with BCL2 inhibitor ABT-199 in AML cell lines, 7-day cell proliferation assay; assay type: cell-based; settings: Homo sapiens, EOL1, 168 h; EOL-1, treatment duration 7 Days; single agent or combination; read-out: Absolute IC50 (cell proliferation)
Method: On day 1, plate GDM-1 [ATCC®, maintained throughout in GDM-1 assay medium: RPMI-1640 medium/20% heat-inactivated FBS (GIBCO®)] and EOL-1 cells [ATCC®, maintained throughout in EOL-1 assay medium: RPMI-1640 medium/10% heat-inactivated FBS (GIBCO®)] at 4000 and 10000 cells/well (100 μL/well) respectively, in a 96-well assay plate (BD FALCON® 35-3219). Incubate the plates in a 37° C. incubator (5% CO2) for 18-24 hr. On day 2, prepare 2.0% DMSO with assay medium (as indicated above or RPMI-1640/20% heat-inactivated FBS and RPMI-1640/10% FBS for GDM-1 and EOL-1, respectively) and add 100 μL to columns 3-12 in a preparation plate. Prepare test compounds ABT-199 at 10 μM in 2% DMSO and PRMT5 inhibitor Example 1 at 25 μM in 2% DMSO and dispense into wells A2 and B2, respectively, followed by serial dilution (1:3, 10 points) to wells A11 and B11, respectively. For combinational treatment, serially dilute test compound examples at 1:2 in assay medium (as indicated above or RPMI-1640/20% heat-inactivated FBS and RPMI-1640/10% FBS for GDM-1 and EOL-1, respectively) in wells C2-C11 (0.1 μM) to H2-H11, then serially dilute test compound ABT-199 1:3 from C2-H2 (1.0 μM) to C11-H11. […] Incubate plates for 10-15 min at room temperature before reading. Measure luminescence using the PERKIN-ELMER® ENVISION® Multi-Label Reader. […]

T1 sequence (O14744 whole entry): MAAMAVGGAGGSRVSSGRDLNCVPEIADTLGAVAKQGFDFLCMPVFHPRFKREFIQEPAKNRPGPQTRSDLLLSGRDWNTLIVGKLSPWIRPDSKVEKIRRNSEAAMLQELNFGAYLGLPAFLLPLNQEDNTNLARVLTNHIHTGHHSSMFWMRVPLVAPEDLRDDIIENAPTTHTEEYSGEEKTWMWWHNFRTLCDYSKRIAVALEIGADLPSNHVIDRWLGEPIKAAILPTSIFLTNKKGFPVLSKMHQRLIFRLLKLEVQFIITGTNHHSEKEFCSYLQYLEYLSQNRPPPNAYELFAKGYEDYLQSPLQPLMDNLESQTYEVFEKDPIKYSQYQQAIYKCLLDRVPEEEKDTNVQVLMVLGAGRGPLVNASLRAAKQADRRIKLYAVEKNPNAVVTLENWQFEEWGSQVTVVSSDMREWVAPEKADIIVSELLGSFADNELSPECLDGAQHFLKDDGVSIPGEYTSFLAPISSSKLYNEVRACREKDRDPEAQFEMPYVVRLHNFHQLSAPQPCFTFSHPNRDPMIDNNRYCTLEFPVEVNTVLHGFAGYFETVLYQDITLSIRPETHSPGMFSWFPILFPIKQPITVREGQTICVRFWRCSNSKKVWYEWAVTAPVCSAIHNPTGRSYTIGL
T1 sequence (Q9BQA1 whole entry partner): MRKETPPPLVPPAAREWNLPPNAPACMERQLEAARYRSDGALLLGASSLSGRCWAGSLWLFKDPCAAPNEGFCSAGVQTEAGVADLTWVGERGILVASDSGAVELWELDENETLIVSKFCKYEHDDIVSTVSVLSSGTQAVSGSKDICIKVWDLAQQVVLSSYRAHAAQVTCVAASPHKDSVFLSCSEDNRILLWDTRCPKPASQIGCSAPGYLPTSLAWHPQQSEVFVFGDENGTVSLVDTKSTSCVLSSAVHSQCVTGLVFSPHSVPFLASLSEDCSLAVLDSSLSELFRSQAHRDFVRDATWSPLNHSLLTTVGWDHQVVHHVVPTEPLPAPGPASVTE

IC50 (PRMT5/MEP50 complex) [nM]	SMILES	IC50 (EOL-1 cells) [nM]
4.27	Nc1ncnc2c1ccn2[C@@H]1O[C@H]([C@H](O)c2ccc(Cl)cc2)[C@@H](O)[C@H]1O [Example 1, (2R,3R,4S,5R)-2-(4-Aminopyrrolo[2,3-d]pyrimidin-7-yl)-5-[(R)-(4-chlorophenyl)-hydroxy-methyl]tetrahydrofuran-3,4-diol]	6
5.23	C[C@@](O)(c1ccc(Cl)cc1)[C@H]1O[C@@H](n2ccc3c(N)ncnc32)[C@H](O)[C@@H]1O [Example 3, (2R,3R,4S,5S)-2-(4-Aminopyrrolo[2,3-d]pyrimidin-7-yl)-5-[(1R)-1-(4-chlorophenyl)-1-hydroxy-ethyl]tetrahydrofuran-3,4-diol]	–

SMILES	IC50 (PRMT5/MEP50 complex) [nM]	IC50 (EOL-1 cells) [nM]
Nc1ncnc2c1ccn2[C@@H]1O[C@H]([C@H](O)c2ccccc2)[C@@H](O)[C@H]1O [Example 2, (2R,3R,4S,5R)-2-(4-Aminopyrrolo[2,3-d]pyrimidin-7-yl)-5[(R)-hydroxy(phenyl)methyl]tetrahydrofuran-3,4-diol]	9.51	–
